Reference: patent publication US9232796B2, “Herbicidal compositions comprising 4-amino-3-chloro-5-fluoro-6-(4-chloro-2-fluoro-3-methoxyphenyl) pyridine-2-carboxylic acid or a derivative thereof and acetyl-CoA carboxylase (ACCase) inhibitors” (DOW AGROSCIENCES LLC, priority 2012, dated 2016)

How the values were obtained:
CYPIR = experiment: Example V post-emergence field trials in direct-seeded rice; type: in vivo, Cyperus iria; settings: foliar, field trial Tolima, Colombia
Method: Multiple field trials were conducted under commercial grower field conditions in Tolima, Colombia; Thessaloniki, Greece; Bianze and Copiano, Italy; and Humphrey, Ark., USA. Trials sites were located in commercially grown fields of direct-seeded rice (Oryza sativa) using standard herbicide small plot research methodology. Plots varied from 2 to 3 meter (m)×5 to 8 m (width×length) with 4 replicates per treatment. The rice crop was grown using normal cultural practices for fertilization, seeding, watering, flooding and maintenance to ensure good growth of the crop and the weeds.
All treatments in the field trials were applied using a backpack compressed air/gas sprayer with flat fan nozzles (80° or 110°) calibrated to apply 187 to 300 L/ha spray volume at approximately 200-400 kPa nozzle pressure. Commercially available products of cyhalofop-butyl (Clincher 180EC, Clincher 200EC, and Clincher SF (285 gr ai/L EC)) were mixed in water at appropriate formulated product rates to achieve the desired rates based on a unit area of application (hectare) to achieve the desired rates as shown. Treatments were rate at 19 to 58 days after application (DAA) as compared to the untreated control plants. Visual weed control was scored on a scale of 0 to 100 percent where 0 corresponds to no injury and 100 corresponds to complete kill. […]

FIMMI = experiment: Example VI in-water applied ternary mixtures, greenhouse, transplanted paddy rice weeds; type: in vivo, Fimbristylis miliacea (L.) Vahl
Outline: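 Compound A (SC, acid-equivalent basis) alone or with cyhalofop-R-butyl or metamifop plus a third herbicide, injected into paddy water of greenhouse-grown transplanted rice and weeds at 1st–4th leaf stage (~29/26 °C). Visual injury scored 0–100% after ~3 weeks vs untreated; expected mixture effects by Colby's equation.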

## COc1c(Cl)ccc(-c2nc(C(=O)OCc3ccccc3)c(Cl)c(N)c2F)c1F [Compound A Benzyl Ester, benzyl ester of 4-amino-3-chloro-5-fluoro-6-(4-chloro-2-fluoro-3-methoxy-phenyl)pyridine-2-carboxylic acid]
CYPIR; 12 gae/ha
  Visual Weed Control (%) - 19 DAA CYPIR Obs: 69%
FIMMI; 1.09 gae/ha
  Visual Weed Control (%) - 21 DAA FIMMI Obs: 8%
FIMMI; 1.09 gae/ha, first set
  Visual Weed Control (%) - 21 DAA FIMMI Obs: 8%
FIMMI; 2.19 gae/ha
  Visual Weed Control (%) - 21 DAA FIMMI Obs: 33%
FIMMI; 2.19 gae/ha, first set
  Visual Weed Control (%) - 21 DAA FIMMI Obs: 33%
FIMMI; 4 gae/ha
  Visual Weed Control (%) - 24 DAA FIMMI Obs: 0%
FIMMI; 4 gae/ha, second set
  Visual Weed Control (%) - 21 DAA FIMMI Obs: 62%
FIMMI; 8 gae/ha
  Visual Weed Control (%) - 24 DAA FIMMI Obs: 50%
FIMMI; 16 gae/ha
  Visual Weed Control (%) - 24 DAA FIMMI Obs: 30%
FIMMI; Table 67, 4 gae/ha, 24 DAA
  Visual Weed Control (%) - 24 DAA FIMMI Obs: 0%
FIMMI; Table 67, 8 gae/ha, 24 DAA
  Visual Weed Control (%) - 24 DAA FIMMI Obs: 50%
FIMMI; Table 67, 16 gae/ha, 24 DAA
  Visual Weed Control (%) - 24 DAA FIMMI Obs: 30%

## CCCCOC(=O)[C@@H](C)Oc1ccc(Oc2ccc(C#N)cc2F)cc1 [Cyhalofop-butyl, butyl(2R)-2-[4-(4-cyano-2-fluorophenoxy)phenoxy]propanoate, reference compound]
CYPIR; 280 gai/ha
  Visual Weed Control (%) - 19 DAA CYPIR Obs: 0%
FIMMI; 22.5 gai/ha
  Visual Weed Control (%) - 21 DAA FIMMI Obs: 33%
FIMMI; 22.5 gai/ha, second set
  Visual Weed Control (%) - 21 DAA FIMMI Obs: 0%
FIMMI; 45 gai/ha
  Visual Weed Control (%) - 21 DAA FIMMI Obs: 0%
FIMMI; 45 gai/ha, first set
  Visual Weed Control (%) - 21 DAA FIMMI Obs: 0%
FIMMI; 45 gai/ha, second set
  Visual Weed Control (%) - 21 DAA FIMMI Obs: 0%
FIMMI; 90 gai/ha
  Visual Weed Control (%) - 24 DAA FIMMI Obs: 0%
FIMMI; 180 gai/ha
  Visual Weed Control (%) - 24 DAA FIMMI Obs: 20%
FIMMI; Table 67, 180 gai/ha, 24 DAA
  Visual Weed Control (%) - 24 DAA FIMMI Obs: 20%
